According to patent US8080529B2, “Macrolides with anti-inflammatory activity” (Glaxo Group Limited, priority 2005, dated 2011):
Where two headings read alike, the source gives them in different places.

How the values were obtained:
IL-6 = experiment: Inhibition of IL-6 production by stimulated human peripheral blood leukocytes in vitro; format: cell-based; conditions: Homo sapiens, Leukocyte, read-out: Percentage of inhibition of IL-6 production
Outline: (§1)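 Compound at 10 or 50 μM, given 2 h ahead of an overnight LPS, PMA or zymosan challenge, was tested on human PBL in RPMI with 10% FCS at 37 °C. Sandwich ELISA quantified supernatant cytokine.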

TNF-α [1] = experiment: Lipopolysaccharide induced TNF-α production in Balb/cJ mice; format: in vivo; conditions: Mus musculus, ip, 1.5 h; 10 mg/kg intraperitoneally, 30 min before LPS; 90 min after LPS; read-out: % inhibition of TNF-α production (plasma)
A549 = experiment: Cytotoxicity assay (MTT), A549 cell line; format: cell-based; conditions: 24 h
Outline: (§2)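 Viability was read as MTT-formazan absorbance at 490 nm after 0.5-2 h with reagent. This followed 24 h compound exposure (50 μM, 12.5 μM) at 37° C in RPM medium. Result expressed as OD490 treated over untreated cells ×100.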

[2] = tested on: human peripheral blood mononuclear cells (PBMC); experiment: Effects on human T-cell proliferation in vitro (3H-thymidine incorporation); format: cell-based; conditions: Homo sapiens, PBMC, read-out: Percentage of inhibition of proliferation of stimulated PBMC
Outline: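 Proliferation of human peripheral blood mononuclear cells (PBMC) was assessed in the presence of test compounds. During the final 18 h of culture each well received 1 μCi of ^3H-thymidine. Cells were then collected onto a 96-well filter with a multiple cell harvester, and ^3H-thymidine incorporation was counted on a TopCount NXT to give percentage inhibition of proliferation.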

TNF-α [3] = experiment: Inhibition of TNF-α production by stimulated human peripheral blood leukocytes in vitro; format: cell-based; conditions: Homo sapiens, Leukocyte, read-out: Percentage of inhibition of TNF-α production
Outline: as §1

IL-1α = experiment: Inhibition of IL-1 production by stimulated human peripheral blood leukocytes in vitro; format: cell-based; conditions: Homo sapiens, Leukocyte, read-out: Percentage of inhibition of IL-1α production
IL-8 = experiment: Inhibition of IL-8 production by stimulated human peripheral blood leukocytes in vitro; format: cell-based; conditions: Homo sapiens, Leukocyte, read-out: Percentage of inhibition of IL-8 production
Outline: as §1

Hep G2 = experiment: Cytotoxicity assay (MTT), Hep G2 cell line; format: cell-based; conditions: 24 h
Outline: as §2

CC[C@H]1OC(=O)[C@H](C)[C@@H](O[C@H]2C[C@@](C)(OC)[C@@H](O)[C@H](C)O2)[C@H](C)[C@@H](O[C@@H]2O[C@H](C)C[C@H](N(C)C)[C@H]2O)[C@](C)(OC)C[C@@H](C)C(=O)[C@H](C)[C@@H](O)[C@]1(C)O [clarithromycin, reference compound]
inhibition at 10 µM (IL-6; LPS-stimulated PBL): 11%
inhibition at 10 µM (IL-6; PMA-stimulated PBL): 0%
inhibition at 10 µM (IL-6; zymosan-stimulated PBL): 28%
inhibition at 50 µM (IL-6; LPS-stimulated PBL): 0%
inhibition at 50 µM (IL-6; PMA-stimulated PBL): 0%
inhibition at 50 µM (IL-6; zymosan-stimulated PBL): 0%
inhibition in vivo at 10 mg/kg (TNF-α [1]): 63%
Percentage of inhibition of cell growth (A549; 12.5 μM): 0%
Percentage of inhibition of cell growth (A549; 50 μM): 0%
inhibition at 10 µM ([2]; PHA): 0%
inhibition at 50 µM ([2]; PHA): 7%
inhibition at 10 µM ([2]; PMA + iono.): 9%
inhibition at 50 µM ([2]; PMA + iono.): 14%
inhibition at 10 µM (TNF-α [3]; LPS-stimulated PBL): 0%
inhibition at 10 µM (TNF-α [3]; PMA-stimulated PBL): 0%
inhibition at 10 µM (TNF-α [3]; zymosan-stimulated PBL): 0%
inhibition at 50 µM (TNF-α [3]; LPS-stimulated PBL): 0%
inhibition at 50 µM (TNF-α [3]; PMA-stimulated PBL): 0%
inhibition at 50 µM (TNF-α [3]; zymosan-stimulated PBL): 0%
inhibition at 10 µM (IL-1α; LPS-stimulated PBL): 0%
inhibition at 10 µM (IL-1α; PMA-stimulated PBL): 26%
inhibition at 10 µM (IL-1α; zymosan-stimulated PBL): 36%
inhibition at 50 µM (IL-1α; LPS-stimulated PBL): 0%
inhibition at 50 µM (IL-1α; PMA-stimulated PBL): 33%
inhibition at 50 µM (IL-1α; zymosan-stimulated PBL): 59%
inhibition at 10 µM (IL-8; LPS-stimulated PBL): 23%
inhibition at 10 µM (IL-8; PMA-stimulated PBL): 33%
inhibition at 10 µM (IL-8; zymosan-stimulated PBL): 0%
inhibition at 50 µM (IL-8; LPS-stimulated PBL): 0%
inhibition at 50 µM (IL-8; PMA-stimulated PBL): 0%
inhibition at 50 µM (IL-8; zymosan-stimulated PBL): 0%
Percentage of inhibition of cell growth (Hep G2; 12.5 μM): 0%
Percentage of inhibition of cell growth (Hep G2; 50 μM): 0%
